We go through ten compounds from PMC6152194 (Molecules : A Journal of Synthetic Chemistry and Natural …, 2017).

By Ki is commonly meant a dissociation constant, usually derived from enzyme kinetics or from competition with a known ligand. The kcat is the maximal rate divided by the concentration of active sites.

Each structure is given as a SMILES string. Values joined by “and” are separate entries in the source; they are usually repeats but may differ in a detail not shown here. Identical values can stand only once. Like-named read-outs stand apart in the source and are kept apart here.

For experiment [1], the target named is T1, horse BChE (Equus caballus, UniProt P81908).
T1 construct: purchased Worthington Biochemical Corporation
T1 sequence (P81908 whole entry): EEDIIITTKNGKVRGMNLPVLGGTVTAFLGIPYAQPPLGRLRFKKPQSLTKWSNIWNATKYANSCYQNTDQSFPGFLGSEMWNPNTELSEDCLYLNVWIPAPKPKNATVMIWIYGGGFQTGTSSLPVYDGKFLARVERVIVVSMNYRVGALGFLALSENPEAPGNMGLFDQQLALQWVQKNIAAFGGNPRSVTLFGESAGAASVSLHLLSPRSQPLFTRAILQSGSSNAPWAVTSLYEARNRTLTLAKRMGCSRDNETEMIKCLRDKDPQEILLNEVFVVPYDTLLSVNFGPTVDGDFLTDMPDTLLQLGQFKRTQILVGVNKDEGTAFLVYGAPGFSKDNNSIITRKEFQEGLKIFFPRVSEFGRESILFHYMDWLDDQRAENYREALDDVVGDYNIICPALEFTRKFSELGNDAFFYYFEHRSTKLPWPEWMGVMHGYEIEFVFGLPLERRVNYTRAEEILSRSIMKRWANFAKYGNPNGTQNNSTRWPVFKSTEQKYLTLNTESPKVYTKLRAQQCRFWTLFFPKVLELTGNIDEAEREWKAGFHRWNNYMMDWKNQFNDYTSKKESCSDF
The experiment is described as follows: biochemical. In kind it is biochemical. The following applies: for Kon: pH 7.0; for type of inhibition: hydrolysis of 50 μM BSCh, progress curves to 600 s. An excerpt:
Purified horse BChE was from Worthington Biochemical Corporation, dithio-bis-di-nitro benzoic acid and butyrylthiocholine iodide (BSCh) were from Sigma, tetramethylammonium iodide (TMA), tetraethylammonium iodide (TEA), edrophonium chloride (EDR), and methanesulfonylfluoride (MSF) were from BDH; decamethonium bromide (DME) was from Koch Light Laboratories; sodium fluoride and d-Tubocurarine were from Fluka AG. N-((1-benzylpiperidin-3-yl)methyl)-N-methylnaphthalene-2-sulfonamide (942) was synthesized in the Faculty of Pharmacy, University of Ljubljana (Ljubljana, Slovenia). All other reagents used were of analytical grade. The experiments were carried out at 25 °C in 25 mM phosphate buffer, pH 7.0.
A series of compounds were tested by measuring the progress curves for BSCh hydrolysis by horse BChE in the absence and presence of each compound at a single concentration over 10 min, in a 0.6 mL cuvette, using the method of Ellman et al.. […] The concentration of horse BChE, which was always added last, was ~1 nM, for hydrolysis of 50 μM BSCh to completion (in most cases), in the presence of 1 mM dithio-bis-di-nitro benzoic acid. Reaching the plateau was important to get an exact estimate of the actual initial BSCh concentration. This was achieved by conversion of the change in absorbance at 412 nm of the resulting thio-nitro benzoate, using a molar absorption coefficient of 13,800 mol^−1 cm^−1. All of the measurements were conducted using a conventional spectrophotometer (Lambda 45/Vis; Perkin-Elmer), and a 10-s lag period was added before the start of each measurement. The progress curves were then extrapolated to start at the origin prior to the analysis.
The progress-curve analysis was performed using the ENZO web application (Figure 2), implemented at www.enzo.cmm.ki.si. For rapid determination of the kinetics mechanisms and parameters, the Van Slyke–Cullen reaction scheme for substrate hydrolysis by horse BChE was combined with a reversible competitive inhibition mechanism, as expected for active-site-directed ligands. […] In the initial evaluation, all of the second-order binding rate constants (kon’s), although not the constant for MSF, were set to the diffusion rate-limited value of 2 ×10^8 M^−1 s^−1. Therefore, only the first-order dissociation rate constants, together with the substrate specificity constant kcat/Km, the initial substrate concentration, and the added horse BChE active-site concentration, had to be evaluated. The kcat of 663 s^−1 for the hydrolysis of BSCh by horse BChE was taken from a previous study performed under the same conditions.
Therefore, a similar experiment was performed, but in the presence of three additional sodium fluoride concentrations (0.25, 1, 2.5 mM). Each of these measurements was performed twice in a row to determine the reliability of the data obtained. The progress curve analysis was then performed using four types of classical inhibition mechanisms: competitive, uncompetitive, non-competitive, and mixed. Again, a 10-s lag period was added to the time-course of each measurement prior to the analysis using the ENZO web application.

Experiment [2] addresses T1, horse BChE. The following applies: hydrolysis of BSCh by horse BChE, same conditions; cited from earlier work.
Setting [3] is: 50 μM BSCh, 25 °C, 25 mM phosphate buffer pH 7.0, single progress curve, competitive mechanism, read-out: Ki.
Setting [4] is: slow isomerization step after instantaneous binding, 50 μM BSCh.

As to `CN(CC1CCCN(Cc2ccccc2)C1)S(=O)(=O)c1ccc2ccccc2c1` (centres unmarked) [compound 942, N-((1-benzylpiperidin-3-yl)methyl)-N-methylnaphthalene-2-sulfonamide], the Kon at horse BChE [1] (association rate constant, 50 μM BSCh, 25 °C) was 6.2e+07 M⁻¹ s⁻¹ and 6.2 M⁻¹ s⁻¹. Further, at horse BChE [1], the type of inhibition entry is “tight binder”. At horse BChE [1] (read-out: Ki), the Ki is 0.00043 µM.
As to `CC[N+](C)(C)c1cccc(O)c1` [Edrophonium, edrophonium chloride], on horse BChE [1], the affinity corresponds to a Ki of 21 µM and the type of inhibition entry was “reversible competitive inhibitors”.
With `[F-].[Na+]` [Sodium fluoride, sodium fluoride], the Ki on horse BChE [1] (competitive component of mixed inhibition, from Figure 3, 0.25, 0.5, 1 and 2.5 mM sodium fluoride, 50 μM BSCh, read-out: Ki) is 830 µM. Besides, the type of inhibition entry at horse BChE [1] is “mixed reversible inhibitor”. Besides, the “uncompetitive component stronger than the competitive component” value on horse BChE [1] (mixed inhibition model, Table 1) was found to be 2.4 fold. At horse BChE [1] (uncompetitive component of mixed inhibition, from Figure 3, 0.25, 0.5, 1 and 2.5 mM sodium fluoride, 50 μM BSCh), the Kii stood at 0.34 mM.
Take `C[N+](C)(C)CCCCCCCCCC[N+](C)(C)C` [Decamethonium, decamethonium bromide]: on horse BChE [1], affinity was put at a Ki of 7.6 µM and the type of inhibition result is “reversible competitive inhibitors”.
On to `C[N+](C)(C)C.[I-]` [Tetramethylammonium, tetramethylammonium iodide], for which the Ki on horse BChE [1] (setting [3]) came to 2400 µM. Besides, the type of inhibition entry at horse BChE [1] is listed as “reversible competitive inhibitors”.
As to `[I-].[Na+]` [sodium iodide], at horse BChE [1] (at 0.5 mM, data not shown), the “inhibition of BSCh hydrolysis” value is reported as “no inhibition”.
`CC[N+](CC)(CC)CC.[I-]` [Tetraethylammonium, tetraethylammonium iodide]: the Ki on horse BChE [1] (setting [3]) turned out to be 1500 µM. The type of inhibition entry at horse BChE [1] is on record as “reversible competitive inhibitors”.
Regarding `CS(=O)(=O)F` [Methanesulfonylfluoride, methanesulfonylfluoride], the type of inhibition entry on horse BChE [1] was “irreversible inhibitor”. The same compound yielded a Kon on horse BChE [1] (irreversible inhibition step, 15 mM MSF, 50 μM BSCh, 25 °C) of 0.39 s⁻¹.
In the case of `CCCC(=O)SCC[N+](C)(C)C.[I-]` [BSCh, butyrylthiocholine iodide], the kcat at horse BChE [2] was 663 s⁻¹.
Consider `COc1cc2c3cc1Oc1cc(ccc1O)C[C@@H]1c4c(cc(OC)c(O)c4Oc4ccc(cc4)C[C@@H]3N(C)CC2)CC[N+]1(C)C` [d-Tubocurarine], for which, at horse BChE [1], the affinity corresponds to a Ki of 5.1 µM and the type of inhibition result was “slow binder”. In addition, on horse BChE [1] (setting [4]), the “K+isomerization” value amounted to 0.029 s⁻¹ and the K-isomerization was 0.010 s⁻¹.
